Experimental data from PMC8213057, “Targeting ALK2: An Open Science Approach to Developing Therapeutics for the Treatment of Diffuse Intrinsic Pontine Glioma” (Journal of Medicinal Chemistry, 2020).
Several values for one entry are separate records, joined by “and”; a condition that tells them apart may be missing. Equal entries are not always repeated.

Columns and labels:
MSK2/RPS6KA4 = MSK2/RPS6KA4 (Homo sapiens, UniProt O75676); details: 1 μM; Run 1, Run 2
AKT3 = AKT3 (Homo sapiens, UniProt Q9Y243); details: 1 μM; Run 1, Run 2
PKA = PKA (Homo sapiens, UniProt P17612); test: biochemical; details: read-out: % enzyme activity, 1 μM; Run 1, Run 2
TXK = target: T1, TXK (Homo sapiens, UniProt P42681); details: 1 μM; Run 1, Run 2
T1 sequence (P42681 1-527): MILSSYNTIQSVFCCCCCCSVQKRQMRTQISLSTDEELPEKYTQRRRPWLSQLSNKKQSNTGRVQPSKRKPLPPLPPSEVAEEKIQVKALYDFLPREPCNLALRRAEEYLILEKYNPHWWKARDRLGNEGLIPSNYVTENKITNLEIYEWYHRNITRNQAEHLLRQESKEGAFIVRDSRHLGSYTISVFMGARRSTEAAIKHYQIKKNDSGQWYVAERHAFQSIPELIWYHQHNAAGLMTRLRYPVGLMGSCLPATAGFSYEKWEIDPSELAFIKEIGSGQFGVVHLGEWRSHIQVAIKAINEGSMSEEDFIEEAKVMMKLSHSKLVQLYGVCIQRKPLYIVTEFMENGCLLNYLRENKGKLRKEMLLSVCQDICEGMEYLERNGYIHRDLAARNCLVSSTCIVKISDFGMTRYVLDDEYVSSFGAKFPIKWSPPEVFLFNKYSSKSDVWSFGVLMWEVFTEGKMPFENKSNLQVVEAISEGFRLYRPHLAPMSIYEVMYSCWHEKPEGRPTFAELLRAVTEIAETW

BRK = BRK (Homo sapiens, UniProt Q13882); test: biochemical; details: read-out: % enzyme activity, 1 μM; Run 1, Run 2
AKT1 = AKT1 (Homo sapiens, UniProt P31749); test: biochemical; details: read-out: % enzyme activity, 1 μM; Run 1, Run 2
DAPK2 = DAPK2 (Homo sapiens, UniProt Q9UIK4); details: 1 μM; Run 1, Run 2
DYRK1/DYRK1A = DYRK1/DYRK1A (Homo sapiens, UniProt Q13627); details: 1 μM; Run 1, Run 2
GRK4 = GRK4 (Homo sapiens, UniProt P32298); details: 1 μM; Run 1, Run 2
PKCiota = target: T2, PKCiota (Homo sapiens, UniProt P41743); details: 1 μM; Run 1, Run 2
T2 sequence (P41743 1-596): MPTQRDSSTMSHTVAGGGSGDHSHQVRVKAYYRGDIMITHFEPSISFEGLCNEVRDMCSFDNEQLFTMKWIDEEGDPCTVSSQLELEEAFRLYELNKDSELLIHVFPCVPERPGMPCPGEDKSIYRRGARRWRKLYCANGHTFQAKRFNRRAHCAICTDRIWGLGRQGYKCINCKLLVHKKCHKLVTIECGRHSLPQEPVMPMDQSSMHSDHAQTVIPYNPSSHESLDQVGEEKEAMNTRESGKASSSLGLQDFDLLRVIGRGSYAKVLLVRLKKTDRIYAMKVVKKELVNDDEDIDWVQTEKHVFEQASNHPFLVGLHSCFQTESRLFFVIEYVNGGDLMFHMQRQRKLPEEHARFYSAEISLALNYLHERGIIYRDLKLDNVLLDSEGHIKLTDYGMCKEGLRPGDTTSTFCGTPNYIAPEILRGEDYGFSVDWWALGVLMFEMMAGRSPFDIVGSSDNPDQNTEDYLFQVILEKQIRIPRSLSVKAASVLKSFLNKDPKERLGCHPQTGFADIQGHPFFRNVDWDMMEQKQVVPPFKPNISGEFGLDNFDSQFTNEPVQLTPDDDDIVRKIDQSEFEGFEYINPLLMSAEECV

MKK6 = target: T3, MKK6 (Homo sapiens, UniProt P52564); details: 1 μM; Run 1, Run 2
T3 sequence (P52564 1-334): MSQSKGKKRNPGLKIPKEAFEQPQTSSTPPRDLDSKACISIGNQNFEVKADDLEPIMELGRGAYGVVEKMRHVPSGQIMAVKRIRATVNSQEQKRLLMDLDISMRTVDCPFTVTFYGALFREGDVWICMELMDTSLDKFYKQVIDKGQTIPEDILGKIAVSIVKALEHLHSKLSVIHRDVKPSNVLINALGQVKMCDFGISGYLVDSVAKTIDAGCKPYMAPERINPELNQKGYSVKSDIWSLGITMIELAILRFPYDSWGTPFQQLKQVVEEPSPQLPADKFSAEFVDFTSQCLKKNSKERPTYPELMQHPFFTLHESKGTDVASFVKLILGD

PKCg = PKCg (Homo sapiens, UniProt P05129); details: 1 μM; Run 1, Run 2
BRSK2 = target: T4, BRSK2 (Homo sapiens, UniProt Q8IWQ3); test: biochemical; details: read-out: % enzyme activity, 1 μM; Run 1, Run 2
T4 sequence (Q8IWQ3 1-736): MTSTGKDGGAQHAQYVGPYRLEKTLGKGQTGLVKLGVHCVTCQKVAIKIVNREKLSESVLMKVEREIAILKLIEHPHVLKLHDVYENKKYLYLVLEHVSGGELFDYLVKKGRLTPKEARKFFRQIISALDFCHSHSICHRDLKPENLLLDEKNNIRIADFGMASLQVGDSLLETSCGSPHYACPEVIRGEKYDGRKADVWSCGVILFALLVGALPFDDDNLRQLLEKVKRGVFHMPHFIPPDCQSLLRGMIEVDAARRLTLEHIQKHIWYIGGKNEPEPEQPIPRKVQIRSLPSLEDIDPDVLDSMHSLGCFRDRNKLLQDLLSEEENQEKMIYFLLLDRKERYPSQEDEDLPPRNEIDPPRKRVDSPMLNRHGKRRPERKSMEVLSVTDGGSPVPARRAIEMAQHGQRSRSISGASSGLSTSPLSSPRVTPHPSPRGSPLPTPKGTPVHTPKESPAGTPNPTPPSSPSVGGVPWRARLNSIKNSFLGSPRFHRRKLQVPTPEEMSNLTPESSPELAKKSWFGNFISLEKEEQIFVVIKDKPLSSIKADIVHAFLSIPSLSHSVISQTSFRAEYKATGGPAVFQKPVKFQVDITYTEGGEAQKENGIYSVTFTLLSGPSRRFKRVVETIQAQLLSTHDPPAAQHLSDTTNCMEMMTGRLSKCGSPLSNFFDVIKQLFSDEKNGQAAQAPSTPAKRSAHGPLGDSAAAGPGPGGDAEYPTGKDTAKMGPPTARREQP

YES/YES1 = YES/YES1 (Homo sapiens, UniProt P07947); test: biochemical; details: read-out: % enzyme activity, 1 μM; Run 1, Run 2
Chain of YES/YES1 (P07947 whole entry): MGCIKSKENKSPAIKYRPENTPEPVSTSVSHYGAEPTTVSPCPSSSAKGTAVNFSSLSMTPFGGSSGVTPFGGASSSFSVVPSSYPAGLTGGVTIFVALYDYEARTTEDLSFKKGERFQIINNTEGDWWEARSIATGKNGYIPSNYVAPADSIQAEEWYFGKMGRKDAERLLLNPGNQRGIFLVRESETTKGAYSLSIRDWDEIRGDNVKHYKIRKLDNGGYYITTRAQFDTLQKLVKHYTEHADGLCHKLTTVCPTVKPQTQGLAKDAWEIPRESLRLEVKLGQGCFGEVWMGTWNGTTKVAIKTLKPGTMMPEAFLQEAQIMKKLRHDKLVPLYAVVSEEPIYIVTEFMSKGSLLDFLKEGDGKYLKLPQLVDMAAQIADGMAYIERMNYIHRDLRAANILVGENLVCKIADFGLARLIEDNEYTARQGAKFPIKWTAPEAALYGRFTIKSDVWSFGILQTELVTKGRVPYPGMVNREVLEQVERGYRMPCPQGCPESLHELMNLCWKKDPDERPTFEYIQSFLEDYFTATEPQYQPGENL

Chain of DAPK2 (Q9UIK4 whole entry): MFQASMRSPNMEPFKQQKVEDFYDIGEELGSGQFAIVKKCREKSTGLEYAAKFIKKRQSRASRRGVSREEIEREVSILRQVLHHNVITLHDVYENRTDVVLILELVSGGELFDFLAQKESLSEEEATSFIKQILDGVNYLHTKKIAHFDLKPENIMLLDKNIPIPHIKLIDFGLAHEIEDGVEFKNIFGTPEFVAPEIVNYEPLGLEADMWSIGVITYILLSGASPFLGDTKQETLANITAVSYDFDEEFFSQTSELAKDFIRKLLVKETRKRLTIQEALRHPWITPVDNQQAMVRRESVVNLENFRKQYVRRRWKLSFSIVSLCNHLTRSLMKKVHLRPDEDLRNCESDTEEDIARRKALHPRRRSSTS
Chain of MSK2/RPS6KA4 (O75676 whole entry): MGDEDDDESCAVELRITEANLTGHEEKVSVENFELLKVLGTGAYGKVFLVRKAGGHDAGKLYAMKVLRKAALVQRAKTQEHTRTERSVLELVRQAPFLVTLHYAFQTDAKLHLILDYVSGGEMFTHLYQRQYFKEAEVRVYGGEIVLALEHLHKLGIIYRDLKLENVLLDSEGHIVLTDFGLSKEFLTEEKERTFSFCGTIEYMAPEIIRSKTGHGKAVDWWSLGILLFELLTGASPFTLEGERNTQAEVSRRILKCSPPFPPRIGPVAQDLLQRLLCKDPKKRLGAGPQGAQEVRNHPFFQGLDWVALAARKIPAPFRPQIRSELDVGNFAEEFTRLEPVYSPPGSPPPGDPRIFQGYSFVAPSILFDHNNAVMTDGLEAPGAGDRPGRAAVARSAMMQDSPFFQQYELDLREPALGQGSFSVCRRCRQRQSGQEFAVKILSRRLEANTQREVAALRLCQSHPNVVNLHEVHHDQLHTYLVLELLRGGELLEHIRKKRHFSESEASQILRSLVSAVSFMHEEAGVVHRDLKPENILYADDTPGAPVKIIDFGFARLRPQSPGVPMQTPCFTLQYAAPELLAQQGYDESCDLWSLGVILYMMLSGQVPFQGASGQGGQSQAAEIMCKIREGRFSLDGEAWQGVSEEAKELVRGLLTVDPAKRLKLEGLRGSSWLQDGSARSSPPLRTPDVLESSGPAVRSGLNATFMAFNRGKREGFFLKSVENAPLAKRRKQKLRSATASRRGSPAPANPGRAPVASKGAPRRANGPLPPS
Chain of GRK4 (P32298 whole entry): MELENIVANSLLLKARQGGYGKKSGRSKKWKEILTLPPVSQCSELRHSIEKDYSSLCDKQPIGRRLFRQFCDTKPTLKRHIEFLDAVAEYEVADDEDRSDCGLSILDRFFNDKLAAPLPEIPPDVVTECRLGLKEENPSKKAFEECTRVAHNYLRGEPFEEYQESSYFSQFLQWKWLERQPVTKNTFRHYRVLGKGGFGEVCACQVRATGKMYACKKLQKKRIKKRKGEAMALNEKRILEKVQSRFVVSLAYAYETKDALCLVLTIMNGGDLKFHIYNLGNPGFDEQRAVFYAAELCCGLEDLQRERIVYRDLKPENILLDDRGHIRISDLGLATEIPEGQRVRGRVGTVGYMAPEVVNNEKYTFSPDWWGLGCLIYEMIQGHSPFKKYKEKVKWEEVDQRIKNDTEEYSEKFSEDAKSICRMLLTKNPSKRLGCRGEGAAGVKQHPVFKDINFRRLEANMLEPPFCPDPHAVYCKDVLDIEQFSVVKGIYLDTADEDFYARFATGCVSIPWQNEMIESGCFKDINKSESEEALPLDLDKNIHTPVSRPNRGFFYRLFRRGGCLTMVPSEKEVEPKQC
Chain of AKT1 (P31749 whole entry): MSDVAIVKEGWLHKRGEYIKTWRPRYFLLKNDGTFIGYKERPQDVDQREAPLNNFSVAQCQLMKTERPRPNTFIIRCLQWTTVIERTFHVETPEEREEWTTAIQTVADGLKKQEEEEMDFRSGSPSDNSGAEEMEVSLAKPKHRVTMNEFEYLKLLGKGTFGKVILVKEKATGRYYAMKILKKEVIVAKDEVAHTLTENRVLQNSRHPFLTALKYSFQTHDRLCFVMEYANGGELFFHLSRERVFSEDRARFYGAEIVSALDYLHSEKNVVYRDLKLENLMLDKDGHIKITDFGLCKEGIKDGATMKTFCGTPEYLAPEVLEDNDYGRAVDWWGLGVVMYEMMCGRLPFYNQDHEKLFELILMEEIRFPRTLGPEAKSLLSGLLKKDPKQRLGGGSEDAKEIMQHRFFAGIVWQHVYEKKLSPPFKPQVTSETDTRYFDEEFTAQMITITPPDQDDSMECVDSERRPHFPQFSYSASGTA
Chain of BRK (Q13882 whole entry): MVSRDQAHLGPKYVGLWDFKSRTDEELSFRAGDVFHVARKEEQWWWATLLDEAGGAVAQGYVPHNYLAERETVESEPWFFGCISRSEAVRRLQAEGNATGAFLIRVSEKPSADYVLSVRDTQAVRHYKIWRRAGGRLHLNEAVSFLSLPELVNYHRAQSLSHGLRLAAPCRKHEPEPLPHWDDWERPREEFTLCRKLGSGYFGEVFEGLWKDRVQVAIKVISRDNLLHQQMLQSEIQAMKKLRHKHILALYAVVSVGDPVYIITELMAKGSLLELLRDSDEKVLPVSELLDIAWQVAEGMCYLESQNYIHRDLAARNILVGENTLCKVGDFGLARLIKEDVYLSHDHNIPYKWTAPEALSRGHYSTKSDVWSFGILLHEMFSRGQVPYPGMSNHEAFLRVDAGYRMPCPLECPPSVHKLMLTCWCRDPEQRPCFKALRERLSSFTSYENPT
Chain of AKT3 (Q9Y243 whole entry): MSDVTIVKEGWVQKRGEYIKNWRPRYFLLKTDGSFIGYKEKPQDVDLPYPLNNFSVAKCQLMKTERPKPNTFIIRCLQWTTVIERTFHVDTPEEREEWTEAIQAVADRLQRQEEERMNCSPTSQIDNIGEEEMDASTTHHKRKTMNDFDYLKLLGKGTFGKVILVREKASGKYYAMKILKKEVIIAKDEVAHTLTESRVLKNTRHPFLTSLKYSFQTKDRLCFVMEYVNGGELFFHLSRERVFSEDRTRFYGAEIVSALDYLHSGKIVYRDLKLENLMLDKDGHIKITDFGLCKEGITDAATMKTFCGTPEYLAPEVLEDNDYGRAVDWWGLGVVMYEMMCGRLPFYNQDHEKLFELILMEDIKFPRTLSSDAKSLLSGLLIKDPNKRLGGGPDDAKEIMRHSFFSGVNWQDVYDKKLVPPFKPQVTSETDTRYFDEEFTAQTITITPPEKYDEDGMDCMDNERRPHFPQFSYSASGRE

| SMILES | % enzyme activity (MSK2/RPS6KA4) [%] | % enzyme activity at 1 μM (BMPR2) | % enzyme activity (AKT3) [%] | remaining activity at 1 µM (PKA) [%] | % enzyme activity (TXK) [%] | remaining activity at 1 µM (BRK) [%] | remaining activity at 1 µM (AKT1) [%] | % enzyme activity (DAPK2) [%] | % enzyme activity (DYRK1/DYRK1A) [%] | % enzyme activity (GRK4) [%] | % enzyme activity (PKCiota) [%] | % enzyme activity (MKK6) [%] | % enzyme activity (PKCg) [%] | remaining activity at 1 µM (BRSK2) [%] | remaining activity at 1 µM (YES/YES1) [%] |
| --- | --- | --- | --- | --- | --- | --- | --- | --- | --- | --- | --- | --- | --- | --- | --- |
| COc1cc(-c2cncc(-c3ccc(N4CCN(C)CC4)cc3)c2C)cc(F)c1C(N)=O [Compound 26a, 2-Fluoro-6-methoxy-4-(4-methyl-5-(4-(4-methylpiperazin-1-yl)phenyl)pyridin-3-yl)benzamide] | 96.56 | 89.1% and 88.4% | 94.73 | 97.9 | 100.80 | 58.3 | 106 | 101.48 | 43.07 | 79.15 | 100.36 | 80.71 | 96.27 | 61.3 | 105 |
| COc1cc(-c2cncc(-c3ccc(N4C[C@@H](C)N(C)[C@@H](C)C4)cc3)c2C)cc(F)c1C(N)=O [Compound 26c, 2-Fluoro-6-methoxy-4-(4-methyl-5-(4-((3R,5S)-3,4,5-trimethylpiperazin-1-yl)phenyl)pyridin-3-yl)benzamide] | 92.01 | 104% and 100% | 98.56 | 96.9 | 95.85 | 73.9 | 105 | 95.98 | 60.05 | 92.15 | 98.91 | 79.33 | 96.41 | 77.9 | 109 |
